Measured values reported in patent publication US12187667B2, “Preparation systems and preparation methods for high-quality xylitol crystals” (ZHEJIANG HUAKANG PHARMACEUTICAL CO., LTD., priority 2022, dated 2025).

Columns and labels:
[1] = Acidity (pH) of xylitol crystal by the Chinese Pharmacopoeia method, 10 g crystal to 20 ml water; type: physicochemical; conditions: 10 g crystal to 20 ml pure water; for pH of xylitol after one month storage: crystal stored at room temperature for one month; for pH of xylitol after one week storage: crystal stored at room temperature for one week; for pH of xylitol: freshly prepared crystal
Description: The acidity of prepared xylitol crystal B was measured according to the method in the Chinese Pharmacopoeia. Xylitol solution was prepared with pure water in a proportion of 10 g crystal to 20 ml water. The pH of the xylitol solution in this Example was measured to be 6.06. After the obtained xylitol crystal B were stored at room temperature for one week, the pH of the xylitol solution was measured to be 6.03 using the same method. After the xylitol crystal was stored at room temperature for one month, the pH of the xylitol solution was measured to be 6.01 using the same method. The acidity of prepared xylitol crystal B was measured according to the method in the Chinese Pharmacopoeia. Xylitol solution was prepared with pure water in a proportion of 10 g crystal to 20 ml water. The pH of the xylitol solution in this Example was measured to be 6.12. After the obtained xylitol crystal B was stored at room temperature for one week, the pH of the xylitol solution was measured to be 6.08 using the same method. After the xylitol crystal was stored at room temperature for one month, the pH of the xylitol solution was measured to be 6.05 using the same method. The acidity of prepared xylitol crystal B was measured according to the method in the Chinese Pharmacopoeia. Xylitol solution was prepared with pure water in a proportion of 10 g crystal to 20 ml water. The pH of the xylitol solution in this Example was measured to be 6.09. After the obtained xylitol crystal B was stored at room temperature for one week, the pH of the xylitol solution was measured to be 6.07 using the same method. After the xylitol crystals were stored at room temperature for one month, the pH of the xylitol solution was measured to be 6.05 using the same method. The acidity of prepared xylitol crystal was measured according to the method in the Chinese Pharmacopoeia. Xylitol solution was prepared with pure water in a proportion of 10 g crystal to 20 ml water. The pH of the xylitol solution in this comparative example was measured to be 5.02. After the obtained xylitol crystals was stored at room temperature for one week, the pH of the xylitol solution was measured to be 4.85 using the same method. After the xylitol crystal was stored at room temperature for one month, the pH of the xylitol solution was measured to be 4.64 using the same method. The acidity of prepared xylitol crystal was measured according to the method in the Chinese Pharmacopoeia. Xylitol solution was prepared with pure water in a proportion of 10 g crystal to 20 ml water. The pH of the xylitol solution in this Contrast was measured to be 5.04. After the obtained xylitol crystal was stored at room temperature for one week, the pH of the xylitol solution was measured to be 4.81 using the same method. After the xylitol crystal was stored at room temperature for one month, the pH of the xylitol solution was measured to be 4.68 using the same method. The acidity of prepared xylitol crystal was measured according to the method in the Chinese Pharmacopoeia. Xylitol solution was prepared with pure water in a proportion of 10 g crystal to 20 ml water. The pH of the xylitol solution in this comparative example was measured to be 5.03. After the obtained xylitol crystal was stored at room temperature for one week, the pH of the xylitol solution was measured to be 4.90 using the same method. After the xylitol crystal was stored at room temperature for one month, the pH of the xylitol solution was measured to be 4.73 using the same method.

[2] = pH of crude xylitol crystal after first crystallization; type: physicochemical; conditions: after first centrifuge and fluidization drying, before recrystallization
Description: Step 12, constant vacuum degree of the first crystallization kettle 7 was maintained at −0.095 MPa to further evaporate the xylitol concentrate solution. When temperature of the first crystallization kettle 7 dropped to 65° C., 0.001% xylitol crystal seeds (80-100 mesh) were added, and the system was maintained at constant temperature of 65° C. for evaporation and crystallization for 8 h. Finally, a crude xylitol crystal with purity of 99.5% and pH of 4.87 was obtained by centrifugal separation treatment of the first centrifuge 8 and fluidization drying treatment of the fluidization drying bed 9. At the same time, the primary centrifugal mother liquor C with purity of 90% obtained by the centrifugal separation treatment of the first centrifuge 8 was backset to the blending tank 1.
Step 22, constant vacuum degree of the first crystallization kettle 7 was maintained at −0.095 MPa to further evaporate the xylitol concentrate solution. When temperature of the first crystallization kettle 7 dropped to 64° C., 0.001% xylitol crystal seeds (100-120 mesh) were added, and the system was maintained at constant temperature of 64° C. for evaporation and crystallization for 12 h. Finally, crude xylitol crystal with purity of 99.6% and pH of 4.9 was obtained by centrifugal separation treatment of the first centrifuge 8 and fluidization drying treatment of the fluidization drying bed 9. At the same time, the primary centrifugal mother liquor C with purity of 89.5% obtained by the centrifugal separation treatment of the first centrifuge 8 was backset to the blending tank 1.
Step 32, constant vacuum degree of the first crystallization kettle 7 was maintained at −0.095 MPa to further evaporate the xylitol concentrate solution. When temperature of the first crystallization kettle 7 dropped to 66° C., 0.002% xylitol crystal seeds (60-80 mesh) were added, and the system was maintained at constant temperature of 66° C. for evaporation and crystallization for 10 h. […]

[3] = cited from earlier work
[4] = pH of xylitol crystal prepared from xylitol solutions with different compositions; type: physicochemical; conditions: crystal prepared from xylitol solution of the stated composition
Source text: In the production process of xylitol, there are two main factors can affect the pH of the product, one of which is ion exchange process. When xylitol solution passes through cation and anion exchange columns, H^+ and OH^− in resins are exchanged out, respectively. Due to the difference of exchange capacity between cation exchange column and anion exchange column, xylitol crystal products may have different pH. The other factor affecting the pH of xylitol product is the difference in composition of xylitol solution, which leads to a great difference in the pH of xylitol crystal.

[5] = listed as Comparative Example 2
[6] = listed as Comparative Example 3
[7] = listed as Comparative Example 1

pH of xylitol after one month storage [1]	pH of xylitol after one week storage [1]	pH of xylitol [1]	SMILES	further results
4.68	4.81	5.04	OC[C@@H](O)[C@H](O)[C@@H](O)CO [compound 2, xylitol]	pH of xylitol after one month storage [1, 5]: 4.68; pH of xylitol after one week storage [1, 5]: 4.81; pH of xylitol [1, 5]: 5.04
–	–	–	OC[C@@H](O)[C@H](O)[C@@H](O)CO [Example 3 crude xylitol crystal, xylitol]	pH of crude xylitol crystal [2]: 4.99
6.05	6.08	6.12	OC[C@@H](O)[C@H](O)[C@@H](O)CO [Example 2, xylitol]	–
–	–	–	OC[C@@H](O)[C@H](O)[C@@H](O)CO [Example 2 crude xylitol crystal, xylitol]	pH of crude xylitol crystal [2]: 4.9
–	–	–	O=C[C@H](O)[C@@H](O)[C@H](O)CO [Xylose]	Acidity coefficient (pKa) [3]: 12.14
4.73	4.90	5.03	OC[C@@H](O)[C@H](O)[C@@H](O)CO [compound 3, xylitol]	pH of xylitol after one month storage [1, 6]: 4.73; pH of xylitol after one week storage [1, 6]: 4.90; pH of xylitol [1, 6]: 5.03
–	–	–	OC[C@@H](O)[C@H](O)[C@@H](O)CO [100% xylitol, xylitol]	pH of xylitol crystal [4]: 6.02
4.64	4.85	5.02	OC[C@@H](O)[C@H](O)[C@@H](O)CO [compound 1, xylitol]	pH of xylitol after one month storage [1, 7]: 4.64; pH of xylitol after one week storage [1, 7]: 4.85; pH of xylitol [1, 7]: 5.02
–	–	–	O=C[C@@H](O)[C@H](O)[C@H](O)CO [Arabinose]	Acidity coefficient (pKa) [3]: 12.46 ± 0.2
–	–	–	OC[C@@H](O)[C@H](O)[C@@H](O)CO [Example 1 crude xylitol crystal, xylitol]	pH of crude xylitol crystal [2]: 4.87
6.05	6.07	6.09	OC[C@@H](O)[C@H](O)[C@@H](O)CO [Example 3, xylitol]	–
–	–	–	OC[C@@H](O)[C@H](O)[C@@H](O)CO [Xylitol]	Acidity coefficient (pKa) [3]: 13.24 ± 0.2
–	–	–	O=C[C@H](O)[C@@H](O)[C@@H](O)[C@H](O)CO [galactose]	Acidity coefficient (pKa) [3]: 12.35
6.01	6.03	6.06	OC[C@@H](O)[C@H](O)[C@@H](O)CO [Example 1, xylitol]	–
